Experimental findings from US8637509B2, “Azaindazoles” (GlaxoSmithKline LLC, priority 2010, dated 2014) are described below.

This experiment has as its target T1, EZH2 (Homo sapiens, UniProt Q15910).
T1 construct: GRITS37108
Briefly: EZH2 methyltransferase SPA assay (3H-SAM, Hela nucleosomes). Conditions: read-out: IC50. The class given is biochemical.

pIC50: −log10 of the molar value.

T1 sequence (Q15910 whole entry): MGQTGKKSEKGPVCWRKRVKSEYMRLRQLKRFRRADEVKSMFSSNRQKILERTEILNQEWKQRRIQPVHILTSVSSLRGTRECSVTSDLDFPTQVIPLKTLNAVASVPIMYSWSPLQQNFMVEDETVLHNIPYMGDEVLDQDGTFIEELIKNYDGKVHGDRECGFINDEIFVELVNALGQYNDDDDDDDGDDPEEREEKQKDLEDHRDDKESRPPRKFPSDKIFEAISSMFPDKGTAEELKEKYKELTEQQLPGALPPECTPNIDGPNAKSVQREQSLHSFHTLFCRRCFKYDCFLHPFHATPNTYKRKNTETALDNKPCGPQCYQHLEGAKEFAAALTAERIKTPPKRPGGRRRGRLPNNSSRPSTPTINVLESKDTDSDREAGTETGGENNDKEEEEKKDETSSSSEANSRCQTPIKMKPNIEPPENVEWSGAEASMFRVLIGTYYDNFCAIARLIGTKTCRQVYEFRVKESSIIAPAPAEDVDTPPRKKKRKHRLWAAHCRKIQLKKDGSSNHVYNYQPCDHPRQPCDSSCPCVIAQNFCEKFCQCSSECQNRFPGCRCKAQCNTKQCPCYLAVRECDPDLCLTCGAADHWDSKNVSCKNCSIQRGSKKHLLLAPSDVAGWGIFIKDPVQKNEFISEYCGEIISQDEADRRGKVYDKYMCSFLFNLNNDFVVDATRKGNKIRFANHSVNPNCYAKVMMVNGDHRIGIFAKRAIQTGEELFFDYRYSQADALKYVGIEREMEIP
T1 sequence (O75530 whole entry partner): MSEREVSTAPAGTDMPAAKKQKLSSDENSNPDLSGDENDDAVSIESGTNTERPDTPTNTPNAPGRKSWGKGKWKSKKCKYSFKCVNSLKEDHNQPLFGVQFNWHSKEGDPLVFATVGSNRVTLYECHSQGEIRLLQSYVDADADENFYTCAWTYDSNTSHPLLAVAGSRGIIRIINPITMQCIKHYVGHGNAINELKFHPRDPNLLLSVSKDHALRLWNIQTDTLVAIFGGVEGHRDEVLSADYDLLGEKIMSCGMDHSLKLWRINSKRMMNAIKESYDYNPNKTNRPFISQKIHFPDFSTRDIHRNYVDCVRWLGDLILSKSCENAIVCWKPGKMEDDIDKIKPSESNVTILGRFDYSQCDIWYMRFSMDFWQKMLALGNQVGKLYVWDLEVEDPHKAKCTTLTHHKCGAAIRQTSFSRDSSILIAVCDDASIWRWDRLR
T1 sequence (Q15022 whole entry partner): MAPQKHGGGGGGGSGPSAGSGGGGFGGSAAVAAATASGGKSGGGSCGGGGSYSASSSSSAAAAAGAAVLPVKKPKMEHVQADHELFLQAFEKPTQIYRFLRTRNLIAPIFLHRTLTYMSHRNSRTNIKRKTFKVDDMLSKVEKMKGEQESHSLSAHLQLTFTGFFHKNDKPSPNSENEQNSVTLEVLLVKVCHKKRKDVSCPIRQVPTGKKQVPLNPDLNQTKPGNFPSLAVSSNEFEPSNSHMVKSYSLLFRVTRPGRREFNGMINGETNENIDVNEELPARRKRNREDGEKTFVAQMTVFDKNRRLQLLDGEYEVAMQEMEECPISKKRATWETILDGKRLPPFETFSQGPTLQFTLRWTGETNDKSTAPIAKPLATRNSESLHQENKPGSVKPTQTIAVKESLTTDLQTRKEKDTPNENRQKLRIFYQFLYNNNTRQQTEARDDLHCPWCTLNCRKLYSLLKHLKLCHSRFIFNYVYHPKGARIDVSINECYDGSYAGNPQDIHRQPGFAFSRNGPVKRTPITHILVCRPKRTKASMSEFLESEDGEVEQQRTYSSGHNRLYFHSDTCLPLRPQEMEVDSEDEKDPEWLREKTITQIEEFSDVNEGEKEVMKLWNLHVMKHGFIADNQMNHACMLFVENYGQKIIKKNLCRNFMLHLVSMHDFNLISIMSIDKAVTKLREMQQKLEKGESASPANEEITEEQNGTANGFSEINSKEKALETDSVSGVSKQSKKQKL

As a reminder, the pIC50 is the IC50 on a negative log10 scale, so that one unit is a factor of ten. As to `Cc1cc(C)c(CNC(=O)c2cc(-c3ccc(N4CCN(C)CC4)nc3)nc3c2c(C)nn3C(C)(C)C)c(=O)[nH]1` [Ex 87, 1-(1,1-Dimethylethyl)-N-[(4,6-dimethyl-2-oxo-1,2-dihydro-3-pyridinyl)methyl]-3-methyl-6-[6-(4-methyl-1-piperazinyl)-3-pyridinyl]-1H-pyrazolo[3,4-b]pyridine-4-carboxamide], the pIC50 is 7.74.

In the case of `Cc1cc(C)c(CNC(=O)c2cc(-c3ccc4[nH]c(=O)[nH]c4c3)nc3c2c(C)nn3C(C)(C)C)c(=O)[nH]1` [Ex 88, 1-(1,1-Dimethylethyl)-N-[(4,6-dimethyl-2-oxo-1,2-dihydro-3-pyridinyl)methyl]-3-methyl-6-(2-oxo-2,3-dihydro-1H-benzimidazol-5-yl)-1H-pyrazolo[3,4-b]pyridine-4-carboxamide], the pIC50 was 7.28.

On to `Cc1cc(C)c(CNC(=O)c2cc(-c3ccc(N4CCOCC4)nc3)nc3c2c(C)nn3C(C)(C)C)c(=O)[nH]1` [Ex 89, 1-(1,1-Dimethylethyl)-N-[(4,6-dimethyl-2-oxo-1,2-dihydro-3-pyridinyl)methyl]-3-methyl-6-[6-(4-morpholinyl)-3-pyridinyl]-1H-pyrazolo[3,4-b]pyridine-4-carboxamide], for which the pIC50 was 7.17.

As to `Cc1cc(C)c(CNC(=O)c2cc(-c3ccc4nonc4c3)nc3c2c(C)nn3C(C)C)c(=O)[nH]1` [Ex 90, 6-(2,1,3-Benzoxadiazol-5-yl)-N-[(4,6-dimethyl-2-oxo-1,2-dihydro-3-pyridinyl)methyl]-3-methyl-1-(1-methylethyl)-1H-pyrazolo[3,4-b]pyridine-4-carboxamide], the pIC50 was 6.76.

Consider `CNS(=O)(=O)c1ccc(-c2cc(C(=O)NCc3c(C)cc(C)[nH]c3=O)c3c(C)nn(C(C)C)c3n2)cc1` [Ex 92, N-[(4,6-Dimethyl-2-oxo-1,2-dihydro-3-pyridinyl)methyl]-3-methyl-6-{4-[(methylamino)sulfonyl]phenyl}-1-(1-methylethyl)-1H-pyrazolo[3,4-b]pyridine-4-carboxamide], for which the pIC50 is 7.12.

Regarding `CC(=O)Nc1ccc(-c2cc(C(=O)NCc3c(C)cc(C)[nH]c3=O)c3c(C)nn(C(C)C)c3n2)cc1` [Ex 93, 6-[4-(Acetylamino)phenyl]-N-[(4,6-dimethyl-2-oxo-1,2-dihydro-3-pyridinyl)methyl]-3-methyl-1-(1-methylethyl)-1H-pyrazolo[3,4-b]pyridine-4-carboxamide], the pIC50 is 7.08.

As for `Cc1cc(C)c(CNC(=O)c2cc(-c3ccc(C(N)=O)cc3)nc3c2cnn3C(C)C)c(=O)[nH]1` [Ex 94, 6-[4-(Aminocarbonyl)phenyl]-N-[(4,6-dimethyl-2-oxo-1,2-dihydro-3-pyridinyl)methyl]-1-(1-methylethyl)-1H-pyrazolo[3,4-b]pyridine-4-carboxamide], the pIC50 is 6.99.

For `Cc1cc(C)c(CNC(=O)c2cc(NCCNc3ccccn3)nc3c2cnn3C(C)C)c(=O)[nH]1` [Ex 95, N-[(4,6-Dimethyl-2-oxo-1,2-dihydro-3-pyridinyl)methyl]-1-(1-methylethyl)-6-{[2-(2-pyridinylamino)ethyl]amino}-1H-pyrazolo[3,4-b]pyridine-4-carboxamide], the pIC50 is 6.31.

Consider `Cc1cc(C)c(CNC(=O)c2cc(-c3cnc4c(c3)CCC(=O)N4)nc3c2cnn3C(C)C)c(=O)[nH]1` [Ex 96, N-[(4,6-Dimethyl-2-oxo-1,2-dihydro-3-pyridinyl)methyl]-1-(1-methylethyl)-6-(7-oxo-1,5,6,7-tetrahydro-1,8-naphthyridin-3-yl)-1H-pyrazolo[3,4-b]pyridine-4-carboxamide], for which the pIC50 is 7.24.

`CNS(=O)(=O)c1ccc(-c2cc(C(=O)NCc3c(C)cc(C)[nH]c3=O)c3cnn(C(C)C)c3n2)cn1` [Ex 97, N-[(4,6-Dimethyl-2-oxo-1,2-dihydro-3-pyridinyl)methyl]-6-{6-[(methylamino)sulfonyl]-3-pyridinyl}-1-(1-methylethyl)-1H-pyrazolo[3,4-b]pyridine-4-carboxamide]: the pIC50 was 7.26.

Turning to `Cc1cc(C)c(CNC(=O)c2cc(C3CC3)nc3c2cnn3CCNS(C)(=O)=O)c(=O)[nH]1` [Ex 99, 6-Cyclopropyl-N-[(4,6-dimethyl-2-oxo-1,2-dihydro-3-pyridinyl)methyl]-1-{2-[(methylsulfonyl)amino]ethyl}-1H-pyrazolo[3,4-b]pyridine-4-carboxamide], the negative-log IC50 (pIC50) was 4.60.

On to `Cc1cc(C(=O)NCc2c(C)cc(C)[nH]c2=O)c2cnn(Cc3ccccc3)c2n1` [Ex 100, N-[(4,6-Dimethyl-2-oxo-1,2-dihydro-3-pyridinyl)methyl]-6-methyl-1-(phenylmethyl)-1H-pyrazolo[3,4-b]pyridine-4-carboxamide], for which the pIC50 was 5.24.

For `Cc1cc(C)c(CNC(=O)c2cc(C3CC3)nc3c2c(C)nn3C(C)C)c(=O)[nH]1` [Ex 103, 6-Cyclopropyl-N-[(4,6-dimethyl-2-oxo-1,2-dihydro-3-pyridinyl)methyl]-3-methyl-1-(1-methylethyl)-1H-pyrazolo[3,4-b]pyridine-4-carboxamide], the pIC50 is 6.43.

Turning to `Cc1cc(C)c(CNC(=O)c2cc(C3CC3)nc3c2c(C)nn3C2CCC2)c(=O)[nH]1` [Ex 105, 1-Cyclobutyl-6-cyclopropyl-N-[(4,6-dimethyl-2-oxo-1,2-dihydro-3-pyridinyl)methyl]-3-methyl-1H-pyrazolo[3,4-b]pyridine-4-carboxamide], the pIC50 is 6.50.

As for `Cc1cc(C)c(CNC(=O)c2cc(C3CC3)nc3c2c(C)nn3C2CCCC2)c(=O)[nH]1` [Ex 106, 1-Cyclopentyl-6-cyclopropyl-N-[(4,6-dimethyl-2-oxo-1,2-dihydro-3-pyridinyl)methyl]-3-methyl-1H-pyrazolo[3,4-b]pyridine-4-carboxamide], the pIC50 is 6.92.

Consider `Cc1cc(C)c(CNC(=O)c2cc(C3CC3)nc3c2c(C)nn3C(C)(C)C)c(=O)[nH]1` [Ex 107, 6-Cyclopropyl-1-(1,1-dimethylethyl)-N-[(4,6-dimethyl-2-oxo-1,2-dihydro-3-pyridinyl)methyl]-3-methyl-1H-pyrazolo[3,4-b]pyridine-4-carboxamide], for which the pIC50 was 7.12.

Consider `Cc1cc(C)c(CNC(=O)c2cc(C3CC3)nc3c2c(C)nn3C(C)C2CC2)c(=O)[nH]1` (stereo not shown) [Ex 109, 6-Cyclopropyl-1-(1-cyclopropylethyl)-N-[(4,6-dimethyl-2-oxo-1,2-dihydro-3-pyridinyl)methyl]-3-methyl-1H-pyrazolo[3,4-b]pyridine-4-carboxamide], for which the pIC50 is 6.68.

Regarding `Cc1cc(C)c(CNC(=O)c2cc(C3CC3)nc3c2c(C)nn3C2CCCCC2)c(=O)[nH]1` [Ex 110, 1-Cyclohexyl-6-cyclopropyl-N-[(4,6-dimethyl-2-oxo-1,2-dihydro-3-pyridinyl)methyl]-3-methyl-1H-pyrazolo[3,4-b]pyridine-4-carboxamide], the negative-log IC50 (pIC50) was 6.64.

With `Cc1cc(C)c(CNC(=O)c2cc(C3CC3)nc3c2c(C)nn3C2CCN(C)CC2)c(=O)[nH]1` [Ex 111, 6-Cyclopropyl-N-[(4,6-dimethyl-2-oxo-1,2-dihydro-3-pyridinyl)methyl]-3-methyl-1-(1-methyl-4-piperidinyl)-1H-pyrazolo[3,4-b]pyridine-4-carboxamide], the pIC50 was 6.44.

For `Cc1cc(C)c(CNC(=O)c2cc(C3CC3)nc3c2c(C)nn3C2CCOCC2)c(=O)[nH]1` [Ex 112, 6-Cyclopropyl-N-[(4,6-dimethyl-2-oxo-1,2-dihydro-3-pyridinyl)methyl]-3-methyl-1-(tetrahydro-2H-pyran-4-yl)-1H-pyrazolo[3,4-b]pyridine-4-carboxamide], the pIC50 is 6.16.

Consider `COc1ccc(-c2cc(C(=O)NCc3c(C)cc(C)[nH]c3=O)c3cnn(C(C)C)c3n2)cc1` [Ex 113, N-[(4,6-Dimethyl-2-oxo-1,2-dihydro-3-pyridinyl)methyl]-1-(1-methylethyl)-6-[4-(methyloxy)phenyl]-1H-pyrazolo[3,4-b]pyridine-4-carboxamide], for which the pIC50 is 6.61.

For the molecule `Cc1cc(C)c(CNC(=O)c2cc(-c3ccncc3)nc3c2cnn3C(C)C)c(=O)[nH]1` [Ex 114, N-[(4,6-Dimethyl-2-oxo-1,2-dihydro-3-pyridinyl)methyl]-1-(1-methylethyl)-6-(4-pyridinyl)-1H-pyrazolo[3,4-b]pyridine-4-carboxamide], the pIC50 was 6.70.

For the molecule `Cc1cc(C)c(CNC(=O)c2cc(-c3ccncc3)nc3c2c(C)nn3C(C)C)c(=O)[nH]1` [Ex 117, N-[(4,6-Dimethyl-2-oxo-1,2-dihydro-3-pyridinyl)methyl]-3-methyl-1-(1-methylethyl)-6-(4-pyridinyl)-1H-pyrazolo[3,4-b]pyridine-4-carboxamide], the pIC50 is 6.72.

On to `Cc1cc(C)c(CNC(=O)c2cc(C(C)(C)C)nc3c2c(C)nn3C(C)(C)C)c(=O)[nH]1` [Ex 118, 1,6-Bis(1,1-dimethylethyl)-N-[(4,6-dimethyl-2-oxo-1,2-dihydro-3-pyridinyl)methyl]-3-methyl-1H-pyrazolo[3,4-b]pyridine-4-carboxamide], for which the pIC50 was 6.56.

For the molecule `Cc1cc(C)c(CNC(=O)c2cc(-c3ccc(S(C)(=O)=O)cc3)nc3c2cnn3C(C)C)c(=O)[nH]1` [Ex 119, N-[(4,6-Dimethyl-2-oxo-1,2-dihydro-3-pyridinyl)methyl]-1-(1-methylethyl)-6-[4-(methylsulfonyl)phenyl]-1H-pyrazolo[3,4-b]pyridine-4-carboxamide], the pIC50 is 6.48.

As for `Cc1cc(C)c(CNC(=O)c2cc(-c3ccc(-c4cn[nH]c4)cc3)nc3c2cnn3C(C)C)c(=O)[nH]1` [Ex 120, N-[(4,6-Dimethyl-2-oxo-1,2-dihydro-3-pyridinyl)methyl]-1-(1-methylethyl)-6-[4-(1H-pyrazol-4-yl)phenyl]-1H-pyrazolo[3,4-b]pyridine-4-carboxamide], the pIC50 was 6.57.

In the case of `COc1ccc(-c2cc(C(=O)NCc3c(C)cc(C)[nH]c3=O)c3c(C)nn(C(C)(C)C)c3n2)cc1` [Ex 121, 1-(1,1-Dimethylethyl)-N-[(4,6-dimethyl-2-oxo-1,2-dihydro-3-pyridinyl)methyl]-3-methyl-6-[4-(methyloxy)phenyl]-1H-pyrazolo[3,4-b]pyridine-4-carboxamide], the pIC50 is 6.39.

Regarding `Cc1cc(C)c(CNC(=O)c2cc(-c3cccnc3)nc3c2c(C)nn3C(C)(C)C)c(=O)[nH]1` [Ex 122, 1-(1,1-Dimethylethyl)-N-[(4,6-dimethyl-2-oxo-1,2-dihydro-3-pyridinyl)methyl]-3-methyl-6-(3-pyridinyl)-1H-pyrazolo[3,4-b]pyridine-4-carboxamide], the pIC50 was 6.82.
